Read-outs that look alike come from different tables or passages of the source. Bridge positions count the residues as written; N and C are the ends. Ends that are not written are not given here. Peptide text beside a SMILES is read from it.
Assays:
[1] = test system: human red blood cells (RBC); test: Hemolysis assay; format: cell-based; settings: human RBC, 10% hematocrit, 1 hour at 37° C., 31 μM, 94 μM and 156 μM
Method: (§1) The polymer's membranolytic potential was determined against human red blood cells (RBC) in phosphate buffer solution (PBS).
(§2) Alternatively, a 10% hematocrit was used and hemolysis was determined after one hour incubation.

Hemolysis assay = format: cell-based, human; settings: lytic concentration inducing 50% lysis of human red blood cells in PBS, read-out: LC50 (the source's name)
Method: as §1, §2

[2] = Hydrophobicity estimation by reversed-phase HPLC (percent acetonitrile at elution); format: physicochemical; settings: percent of acetonitrile at which the polymer was eluted on reversed-phase C18 HPLC
Method: HPLC chromatograms were performed on C18 columns (Vydak, 250 mm×4.6 or 10 mm) using a linear gradient of acetonitrile in water (1% per minute), both solvents contained 0.1% trifluoroacetic acid. The purified polymers were subjected to mass spectrometry (ZQ Waters) to confirm their composition and stored as a lyophilized powder at −20° C. Prior to being tested, fresh solutions were prepared in water, mixed by vortex, solubilized by ultrasound, centrifuged and then diluted in the appropriate medium.
In order to estimate the hydrophobicity of each polymer, the polymer was eluted with a linear gradient of acetonitrile (1% per minute) on an HPLC reversed-phase C18 column, and the percent of acetonitrile at which the polymer was eluted was used for hydrophobicity estimation (see, “ACN (%)” in Table 3 below).

[3] = test system: microorganisms in the saliva of healthy human volunteers; settings: fresh human saliva 1:1 with 100 μM agent, pH 5
Method: A solution of the saliva with no anti-bacterial agent served as a control. […] Each of the solutions was spread over a LA plate, and the plated saliva samples were incubated overnight at 37° C. without aeration. The colonies were enumerated and counted to determine the microbicidal effect of the drug. The values of viable colony forming units (CFU) were determined as described above.

| Compound | hemolytic activity [1] | HC50 (Hemolysis assay; red blood cells (RBC)) [µM] | HC50 (Hemolysis assay) [µM] | ACN (%) [2] [%] | growth of saliva microorganisms (CFU per ml versus incubation time) [3] |
| --- | --- | --- | --- | --- | --- |
| CC[C@H](C)[C@H](NC(=O)[C@H](CCC(=O)O)NC(=O)[C@H](CCC(=O)O)NC(=O)[C@H](Cc1ccccc1)NC(=O)[C@H](CC(=O)O)NC(=O)CNC(=O)[C@H](CC(N)=O)NC(=O)CNC(=O)CNC(=O)CNC(=O)CNC(=O)[C@@H]1CCCN1C(=O)[C@H](CCCNC(=N)N)NC(=O)[C@@H]1CCCN1C(=O)[C@H](N)Cc1ccccc1)C(=O)N1CCC[C@H]1C(=O)N[C@@H](CCC(=O)O)C(=O)N[C@@H](CCC(=O)O)C(=O)N[C@@H](Cc1ccc(O)cc1)C(=O)N[C@@H](CC(C)C)C(=O)O [bivalirudin] | merely a “background level” activity |  |  |  |  |
| GIGKFLKKAKKFGKAFVKILKK-NH2 [MSI-78] | high degree of hemolysis | 45 |  |  |  |
| CC(C)C[C@H](NC(=O)CNC(=O)CNC(=O)[C@@H](N)CCCNC(=N)N)C(=O)N[C@H]1CSSC[C@@H](C(=O)N[C@H](C(=O)NCC(=O)N[C@@H](CCCNC(=N)N)C(N)=O)C(C)C)NC(=O)[C@H](C(C)C)NC(=O)[C@@H]2CSSC[C@H](NC(=O)[C@H](Cc3ccc(O)cc3)NC1=O)C(=O)N[C@@H](CCCNC(=N)N)C(=O)NCC(=O)N[C@@H](CCCNC(=N)N)C(=O)N[C@@H](Cc1ccccc1)C(=O)N2 [IB-367] (H-RGGLCYCRGRFCVCVGR-NH2; disulfide 5-14, 7-12) |  |  | 7 | 45 | inhibited but proliferation is resumed after 30 minutes |

From patent US7915223B2, “Antimicrobial agents” (priority 2004, dated 2011)
